Assay results: EP4624482A1, “PYRIMIDOPYRIMIDINONE COMPOUND AND PHARMACEUTICAL COMPOSITION COMPRISING SAME” (Axceso Biopharma Co., Ltd., priority 2022, dated 2024)

Assays:
[1] = test system: APP/PS/Tau transgenic mice; experiment: Intestinal length in AD-induced animal model; type: in vivo; settings: 1 mg/kg intraperitoneally once every 3 days for 2 weeks
Experimental: In neurodegenerative diseases (AD and PD), the length of the intestine tends to decrease as the disease progresses, so we looked for changes in intestinal length in an AD-induced animal model.
APP/PS/Tau transgenic mice were used as an AD-induced animal model. The compound of formula (1a-1) was administered intraperitoneally once every 3 days at a concentration of 1 mg/kg to 12-week-old transgenic mice for 2 weeks, and the changes in intestinal length of the mice were measured after 1 and 4 weeks.

[2] = test system: C57BL/6 mice; experiment: In vivo permeability of mouse organs after CLP, Evans blue dye; settings: treated at 6 and 16 hours after CLP, Evans blue dye at 18 hours
Experimental: (§1) Permeability was measured by an in vitro method using cell culture and in vivo method using Evans blue dye. To increase permeability, LPS was used in the in vitro method and CLP treatment was used in the in vivo method.
To measure permeability by an in vivo method, the compound of formula (1a-1) was treated at 6 and 16 hours after CLP treatment in the same manner as in Experimental Example 7 above, and 200 µl of a 0.5% Evans blue dye (EBD) solution was administered intravenously at 18 hours, circulated for 1 hour, and organs were harvested to visually confirm the presence of dye. The organs were then homogenized in a homogenizer to extract the dye at 55 °C for 48 hours, and permeability was determined by measuring absorbance at 620 nm.

[3] = test system: dopamine transporter (DAT); experiment: Differentiation of pluripotent stem cells into dopaminergic neurons: DAT; type: cell-based; settings: western blot of 5-week differentiation sample
Experimental: (§2) Pluripotent stem cells were seeded in AggreWell plates (stemcell) at 5,000 cells/microwell and cultured for 5 days in E6 medium (GIBCO) to induce embryonic body (EB) formation. For neural rosette formation, EBs were seeded into 35 mm dishes in groups of 30 and cultured for 10 days in N2bF medium. The 35 mm dishes were used after being coated with 15 µg/ml of poly-L-ornithine (sigma) and 1 µg/ml of fibronectin (sigma). The N2Bf medium composition was DMEM/F12 (GIBCO), N2 supplement (stemcell) 1×, 10% NEAA (GIBCO), 55 µM betaMercaptoethanol (GIBCO), bFGF (peprotech) 20 ng/ml. For the formation of spherical neural masses (SNMs), rosette masses were sliced and cultured in petri dishes with N2bF medium. SNMs were no larger than 500 µM in size and were sliced and cultured for 3 to 4 passages. After subculture of SNM, the clumps were broken into small pieces using a tungsten mesh (Nilaco) for the neural progenitor cell (NPC) culture step, and then attached to a PLO/FN-coated dish and cultured in N2bF medium. To differentiate NPCs into dopaminergic neurons, the medium was replaced with an ITS-B27 medium after 2 days of NPC culture. […]
(§3) The effect of the compound of formula (1a-1) on differentiation into neurons was evaluated by comparing the expression of tyrosine hydroxylase (TH) and dopamine transporter (DAT) depending on the presence or absence of treatment with the compound of formula (1a-1).

[4] = test system: MYSEC (murine yolk sac endothelial cell) cell lines; experiment: In vitro permeability of LPS-treated MYSEC cells (transwell, streptavidin-HRP); type: cell-based
Experimental: as §1
To measure permeability by an in vitro method, MYSEC (murine yolk sac endothelial cell) cell lines were used. MYSEC cell lines were placed in the top chamber of a trans well at 2.5×10^5 cells/well and treated with 300 ng of lipopolysaccharide (LPS) derived from Gram-negative bacteria in the presence of the compound of formula (1a-1) for 24 hours. The medium in the top chamber was replaced with 300 µl of serum-free medium containing 5 µl of streptoavidin-HRP. After 5 minutes, 20 µl of the medium in the lower chamber was taken and the activity of HRP was measured as absorbance at 450 nm.
To determine the mechanism by which the compound of formula (1a-1) improves permeability, the same experiment was performed by knocking down the SIRT1 protein in the MYSEC cell line.

[5] = test system: tyrosine hydroxylase (TH); experiment: Differentiation of pluripotent stem cells into dopaminergic neurons: TH expression; type: cell-based
Experimental: as §2, with “culture. The ITS-B27 medium composition was DMEM/F12 (GIBCO), D-(+)-glucose (sigma) 1.5 mg/ml, insulin (wako) 5 µg/ml, transferrin (wako) 50 µg/ml, selenite (sigma) 30 nM, GlutaMAX (GIBCO) 2.5%, and B27 (GIBCO) 1×. After 4 days of NPC culture, 200 ng/ml of Sonic Hedgehog and 100 ng/ml of FGF8 (peprotech) were added to the ITS-B27 medium. After 6 days of NPC culture, 200 ng/ml of Sonic Hedgehog, 20 ng/ml of GDNF, 20 ng/ml of BDNF (peprotech), 200 µM of ascorbic acid, and 500 µM of cAMP (sigma) were added to the ITS-B27 medium and cultured for approximately 5 weeks. The compound of formula (1a-1) was treated starting from the stage 2 days after NPC culture.” for “culture.”
as §3

[6] = test system: Tau protein; experiment: Tau expression in mouse brain of AD-induced animal model, fluorescence microscopy; type: in vivo, mice; settings: 1 mg/kg intraperitoneally once every 3 days for 2 weeks; brain sections at 1 week and 4 weeks after drug administration
Experimental: To determine the therapeutic effect on Alzheimer's Disease (AD), the effects on amyloid beta monomer (monomeric Aβ, mAβ) and Tau protein, which are biomarkers of AD, were analyzed in an AD-induced animal model.
APP/PS/Tau transgenic mice were used as an AD-induced animal model. The compound of formula (1a-1) was administered intraperitoneally once every 3 days at a concentration of 1 mg/kg to 12-week-old transgenic mice for 2 weeks, and the expression of mAβ and Tau proteins in the mouse brain was measured after 1 and 4 weeks. After anesthetizing the mouse, the cervical region was incised with a dissecting tool, and then the occipital region was incised to remove both sides of the skull. The brain was washed with phosphate buffered saline (PBS) and fixed with 4% paraformaldehyde (Sigma, St Louis, MO, USA) for 12 hours at 4°C. These were cut to a thickness of approximately 10 µm using a vibratome, and hippocampus and cortex sections were collected and placed in 24 wells. PBS was added to the wells containing the fixed tissue sections, and fluorescent nanoparticles (QD565, red fluorescence) conjugated with anti-amyloid antibodies and anti-Tau antibodies (Santa Cruz, USA) were added to each 2 µM, and reacted at 4°C for 12 hours. The expression of mAβ and Tau was confirmed by fluorescence microscopy.

[7] = test system: SIRT1; experiment: SIRT1 expression in mouse vascular cells; type: cell-based

CCCCCCCCCCCCCC[C@H]1OP(=O)(O)O[C@H]1[C@@H](N)CO.Cl [formula (1a-1), (4S,5R)-4-((S)-1-amino-2-hydroxyethyl)-2-hydroxy-5-tetradecyl-1,3,2-dioxaphosphoran-2-oxide hydrochloride]
length of the intestine at 4 weeks (6W) compared to 1 week (3W) after administration [1]: longer | intestinal length ([1]; compared to untreated AD-induced control mice): increased | amount of EBD in each organ [2]: returns to normal | DAT glycosylation [3]: increased | effect on LPS-induced permeability after knockdown of the SIRT1 protein ([4]; MYSEC cell line with SIRT1 knockdown, LPS): does not show the effect | LPS-induced increased permeability ([4]; MYSEC cell line, 300 ng LPS, 24 hours): restores the LPS-induced increased permeability to normal | TH expression at early time ([5]; 3 weeks of treatment, normally increases after more than 5 weeks of differentiation): elevated | expression of TH ([5]; cell fluorescence immunostaining): increased | TH expression ([5]; western blot of 5-week differentiation sample): increased | red fluorescence for Tau [6]: negligible | concentration of maximum expression (SIRT1) [7]: 100 ng/mL
